Test results reported in article PMC10536189 (Microorganisms, 2023).
Like-named read-outs stand apart in the source and are kept apart here.

System: M. tuberculosis
Format: cell-based, Mycobacterium tuberculosis (laboratory strain H37Rv)
Conditions: for Average % Faster than Control: negative = slower
[1] = crude peptide 10 µg/mL, average of experiments 1 and 2
[2] = crude peptide 10 µg/mL, MGIT, independent experiment 1, Control (TB only) 11.10, inoculum emulsified through G25 needle
[3] = crude peptide 10 µg/mL, MGIT, independent experiment 2, Control (TB only) 9.10, inoculum emulsified through G25 needle

Substance	Time to Positivity (Day.Hours) Experiment 1	Time to Positivity (Day.Hours) Experiment 2	Average % Faster than Control [1]	also measured
FFPFLLGALGSLLPKIF [Temporin-SN1/Frog]	10.22 Day.Hours	8.23 Day.Hours	4.6%	–
FFPYAALKWLRKLLKK [P-04/Tunicate]	11.02 Day.Hours	8.08 Day.Hours	7.2%	–
FGKILGVGKKVLCGLS [Odorranain-H1/Frog *]	10.19 Day.Hours	8.03 Day.Hours	9.6%	–
FIFIRWLLKLGHHGRA [Salusin-beta/Scorpion *]	10.18 Day.Hours	8.03 Day.Hours	9.8%	–
FIITGLVRGLTKLF [Temporin-LTb/Frog]	11.07 Day.Hours	8.06 Day.Hours	6.7%	–
FITLLLRKFICSITKKC [Brevinin-1Ta/Frog]	11.07 Day.Hours	8.05 Day.Hours	7.0%	–
FLGALAKIISGIF [Temporin-1TSa/Frog]	11.00 Day.Hours	8.02 Day.Hours	8.9%	–
FLGVVFKLASKVFPAV [D28/Designed *]	11.02 Day.Hours	8.09 Day.Hours	7.0%	–
FLPLFASLIGKLL [Temporin-1Cb/Frog]	11.08 Day.Hours	8.06 Day.Hours	6.6%	–
FLPLIAGLIGKLF [Peptide B9/Frog]	10.19 Day.Hours	8.01 Day.Hours	10.0%	–
FLPLIGRVLSGIL [Temporin A/Frog, naturally occurring peptide, APD3, frog]	–	–	3.7%	Time to Positivity (Day.Hours) Experiment 1 [2]: 11.02 Day.Hours; Time to Positivity (Day.Hours) Experiment 2 [3]: 9.00 Day.Hours
FLPLLASLFSRLF [Temporin-1Oc/Frog, naturally occurring peptide, APD3, frog]	–	–	3.8%	Time to Positivity (Day.Hours) Experiment 1 [2]: 11.10 Day.Hours; Time to Positivity (Day.Hours) Experiment 2 [3]: 8.17 Day.Hours
FLPLVTMLLGKLF [Temporin-1Vc/Frog]	11.12 Day.Hours	8.21 Day.Hours	2.5%	–
FLSIIAKVLGSLF [Temporin 1Vb/Frog]	11.10 Day.Hours	8.08 Day.Hours	5.8%	–
FLSLIPSLVGGSISAFK [TsAP-1/Scorpion]	11.07 Day.Hours	8.05 Day.Hours	7.0%	–
FLSTIWNGIKSLL [Pantinin-3/Scorpion]	11.08 Day.Hours	8.23 Day.Hours	2.8%	–
FVQWFSKFLGRIL [Temporin L/Frog]	11.06 Day.Hours	8.05 Day.Hours	7.1%	–
GAILPLALGALKNLIK [Hylin a1/Frog]	11.14 Day.Hours	8.02 Day.Hours	6.3%	–
GFGMALKLLKKVL [Macropin 1/Wasp]	10.12 Day.Hours	8.07 Day.Hours	10.0%	–
GFKRIVQRIKDFLRNLV [GF-17/Human *]	10.02 Day.Hours	8.07 Day.Hours	11.8%	–
GFWGKLFKLGLHGIGL [NRC-15/Flounder]	11.02 Day.Hours	8.14 Day.Hours	5.9%	–
GLGSLVGNALRIGAKLL [CPF-AM4/Frog]	10.17 Day.Hours	8.06 Day.Hours	9.3%	–
GRLCYCRGWICFCVGR [Protegrin 4/Pig *]	11.11 Day.Hours	8.01 Day.Hours	7.1%	–

Substance	Time to Positivity (Day.Hours) Experiment 1	Time to Positivity (Day.Hours) Experiment 2	Average % Faster than Control [1]	also measured
HFLGTLVNLAKKIL [Temporin-1DRa/Frog, naturally occurring peptide, APD3, frog]	–	–	8.5%	Time to Positivity (Day.Hours) Experiment 1 [2]: 10.18 Day.Hours; Time to Positivity (Day.Hours) Experiment 2 [3]: 8.09 Day.Hours
ILGAILPLVSGLLSNKL [Alyteserin-2b/Toad]	11.18 Day.Hours	8.02 Day.Hours	5.6%	–
ILPFLAGLFSKIL [Pelophylaxin-4/Frog]	11.05 Day.Hours	8.18 Day.Hours	4.5%	–
ILPWKWPWWPWRR [Indolicidin/Cow]	11.03 Day.Hours	8.18 Day.Hours	4.8%	–
INLKAIAALVKKLL [Mastoparan-VT6/Wasp]	10.21 Day.Hours	8.04 Day.Hours	9.0%	–
IRLHRLYTWKATIYTR [PP13/Wasp *]	10.17 Day.Hours	8.02 Day.Hours	10.2%	–
IsCT2/Scorpion: naturally occurring peptide, APD3, scorpion (IFGAIWNGIKSLF)	10.23 Day.Hours	8.21 Day.Hours	4.9%	–
KKLLGKLLKKLGKLLL [GLK-19/Designed *]	10.17 Day.Hours	8.04 Day.Hours	9.7%	–
KRRWRIWLV [P9/Designed]	11.10 Day.Hours	8.14 Day.Hours	4.4%	–
LFKLLGKIIHHVGNFV [Clavanin E/Sea squirt, naturally occurring peptide, APD3, sea squirt]	–	–	5.8%	Time to Positivity (Day.Hours) Experiment 1 [2]: 11.05 Day.Hours; Time to Positivity (Day.Hours) Experiment 2 [3]: 8.12 Day.Hours
LLAGLPKLLCLFFKKC [Brevinin-1DYc/Frog]	11.10 Day.Hours	8.16 Day.Hours	4.0%	–
LLGDFFRKSKEKIGKEFKRIVQRIKDFLRNLVPRTES [Peptide 78, reference compound]	–	–	–	Effect on TTP of MTB in words (peptide 10 µg/mL, MGIT): lower TTP; Time to Positivity (Days.Hours) Experiment 2a (peptide 10 µg/mL, MGIT, diluted inoculum, technical repeat 2a, TB control (no peptide) 15.01): 14.15 Days.Hours; Time to Positivity (Days.Hours) Experiment 2b (peptide 10 µg/mL, MGIT, diluted inoculum, technical repeat 2b, TB control (no peptide) 15.20): 15.00 Days.Hours; Time to Positivity (Days.Hours) Experiment 1a (peptide 10 µg/mL, MGIT, less diluted inoculum, technical repeat 1a, TB control (no peptide) 7.02): 6.08 Days.Hours; Time to Positivity (Days.Hours) Experiment 1b (peptide 10 µg/mL, MGIT, less diluted inoculum, technical repeat 1b, TB control (no peptide) 7.01): 6.09 Days.Hours; Average % Faster than Control (peptide 10 µg/mL, overall average of the averages of experiments 1a/1b and 2a/2b): 5.8%
LSFLPKVIGVIGHLIH [Fallaxidin/Frog *]	11.18 Day.Hours	8.13 Day.Hours	3.2%	–
LVPLFLSKLICFITKKC [Brevinin 1Tb/Frog]	11.10 Day.Hours	8.15 Day.Hours	4.2%	–
OdVP2/Wasp: naturally occurring peptide, APD3, wasp (ILGIITSLLKSLGKK)	10.22 Day.Hours	8.11 Day.Hours	7.3%	–
Pd_mastoparan PDD-B/Wasp: naturally occurring peptide, APD3, wasp (INWLKLGKKILGAL)	11.06 Day.Hours	8.09 Day.Hours	6.3%	–
RGGRLCYCRRRFCVCV [Protegrin 1/Pig *]	10.23 Day.Hours	6.22 Day.Hours	15.3%	–
RWCFRVCYRGICYRKCR [Tachyplasin II/Crab]	10.18 Day.Hours	8.06 Day.Hours	9.1%	–
RWCVYAYVRVRGVLVR [Arenicin 1/Annelid worm *]	10.15 Day.Hours	8.02 Day.Hours	10.5%	–
SAPRGCWTKSYPPKPCK [Ranacyclin E/Frog]	10.07 Day.Hours	8.01 Day.Hours	12.2%	–
SLLSLIRKLIT [Decoralin/Wasp]	11.12 Day.Hours	8.04 Day.Hours	6.3%	–
VFHLLGKIIHHVGNFV [Clavanin C/Sea squirt, naturally occurring peptide, APD3, sea squirt]	–	–	7.2%	Time to Positivity (Day.Hours) Experiment 1 [2]: 10.21 Day.Hours; Time to Positivity (Day.Hours) Experiment 2 [3]: 8.12 Day.Hours
